Measured values reported in patent publication US7173018B2, “Phospholipid derivatives of non-steroidal anti-inflammatory drugs” (D-Pharm, Ltd., priority 1998, dated 2007).

Columns and labels:
[1] = system: Carrageenan-induced rat paw edema; experiment: Carrageenan-induced rat paw edema (anti-inflammatory efficacy); type: in vivo; details: rats, 3, 5 and 7 hours post-carrageenan, p<0.05, FIG. 3
Procedure: Efficacy of DP-DFC lipid derivatives was tested in vivo in the model system of rodent carrageenan edema test.
Carrageenan-induced rat paw edema is a widely employed animal model for acute inflammation. The objective of the study is to assess the potential prophylactic effects of DP-DCF derivatives on the prevention of inflammatory swelling and, in particular, to compare the efficacy parameters with those obtained for diclofenac. The experimental set-up was as follows: Male Sprague-Dawley rats weighing 120–180 g (supplied by Harlan Laboratories Breeding Center, Israel) were intraperitoneally (i.p.) injected with drug or prodrug one hour prior to the induction of inflammation with carrageenan. Animals injected with vehicle alone served as control group.
Paw edema was induced by a single sub-plantar injection of 0.1 ml 2% carrageenan in physiological saline, into test animals' right hind paws. Just prior to paw edema induction, the paw thickness of the test animals' right hind paws was measured in triplicate using a plethysmograph and micrometer to provide a baseline. At 3, 5 and 7 hours post carrageenan injection, the right paw thickness was measured in the same manner as before.
Potential anti-inflammatory activity in suppressing carrageenan-induced paw oedema was assessed by the relative differences in paw volumes between pre- and post-carrageenan measurements, expressed as (%) change. […]

[2] = system: global forebrain ischemia; experiment: Global forebrain ischemia model, serum neuron specific enolase (NSE); type: in vivo, Mongolian gerbils; details: gerbils
Procedure: Neuroprotective effects of compounds of the invention were examined in the global forebrain ischemic model system in Mongolian gerbils.
Male Mongolian gerbils 60–70 g (Charles River Laboratories, USA) were used in this study. Global forebrain ischemia was induced by transient occlusion of both carotid arteries for 10 minutes, using arterial clips. The tested compounds were orally administered to the animals, 7–8 animals per group, by either one of two schemes: • a) single dose administration of commercial diclofenac (Sigma, USA; 10 mg/kg) or dose-equivalent of DP-DCF; Z=5 (30 mg/kg). The administration was per os (p.o.) two hours before induction of ischemia (FIG. 4); • b) multiple dosing of DP-DCF; Z=5 (30 mg/kg) orally administered daily for 5 days beginning four days prior to induction of ischemia. (FIG. 5).
In both schemes, animals treated with vehicle alone served as control groups. Blood samples were withdrawn from eye sinuses of the animals 24 hours after the onset of ischemia and serum levels of neuron specific enolase (NSE) were determined by radioimmunoassay using NSE kit (Pharmatope Ltd., Israel).
It has been shown that serum levels of NSE are elevated in the event of ischemic insult. Thus, serum level of NSE may serve as a marker for the degree of neuronal damage (Barone et al. (1993) Brain Res. 623: 77–82).

[3] = In vivo sub-chronic toxicity study: body weight changes; design: species or system rat; details: rats, 10 mg/kg p.o. gavage daily for 14 days; FIG. 1
Procedure: DP-DCF compounds were evaluated for sub-chronic toxicity during 14-day drug administration period by following two criteria: a) monitoring body weight changes, and b) evaluating gastro-toxicity scores.
Male Sprague-Dawley rats weighing 250–280 g were kept under standard conditions for an acclimatization period of one week with food and water supplied ad lib. The rats were administered with commercial diclofenac (DCF; Sigma, USA) or with equivalent doses of 1-Stearoyl-2-{4-[2-(2,6-dichloroanilino)-phenylacetamido]butanoyl}-sn-glycero-3-phosphocholine (DP-DCF; Z=3) or 1-Stearoyl-2-{6-[2-(2,6-dichloroanilino)-phenylacetamido]hexanoyl}-sn-glycero-3-phosphocholine (DP-DCF; Z=5), p.o. by gavage daily for 14 days. Animals treated with the vehicle solution alone serve as control group.
The treatment groups were as follows:
A major sign of general toxicity is decreasing of body weight. Male Sabra rats were treated as described above. The rats were weighed prior to dosing at the beginning of the experiment (day zero) and at the 5th, 9th and 13th day of the treatment.

[4] = In vivo sub-chronic toxicity study: gastro-toxicity scores; design: species or system rat; details: rats, 10 mg/kg p.o. daily, day 14; scores 0 (no visible lesions) to 5 (perforation); FIG. 2
Procedure: Male Sprague-Dawley rats weighing 250–280 g were kept under standard conditions for an acclimatization period of one week with food and water supplied ad lib. […] Animals treated with the vehicle solution alone serve as control group.
Toxicity scores were assessed at the end of the 14-day multiple p.o drug administration period. On day 14, the animals were anesthetized 4 hours after administration of the test materials by i.p. injection of 0.5 ml pentobarbitone sodium (200 mg/ml) and laparatomy was preformed to remove the rat's stomach with approximately 15 mm of the associated duodenum. The stomachs were cut open along the small curvature and washed, with gentle rubbing, under running water. A semi-quantitative assessment of the gastric damage was determined by assigning scores ranging from 0 to 5. The scores indicate as follows: (0) No macroscopically visible lesions; (1) Hyperemia; (2) One-two slight lesions; (3) More than 2 slight lesions; (4) Severe lesions; (5) Perforation.

## 1-Stearoyl-2-{6-[2-(2,6-dichloroanilino)phenylacetamido]hexanoy}-sn-glycero-3-phosphocholine [DCF n=5]
[1]; 30 mg/kg i.p. one hour prior to carrageenan
  Anti-inflammatory activity: suppression of carrageenan-induced increase of paw volume: statistically significant and consistent anti-inflammatory activity
[2]; 30 mg/kg orally daily for 5 days beginning four days prior to ischemia, p<0.05, FIG. 5
  Serum NSE level 24 hours after ischemia: significant reduction in NSE level
[2]; single dose 30 mg/kg p.o. two hours before ischemia, FIG. 4
  Serum NSE level 24 hours after ischemia: reduced in comparison to NSE level in serum of animals that were treated with DCF or vehicle alone

## O=C(O)Cc1ccccc1Nc1c(Cl)cccc1Cl [DCF, [o-(2,6-dichloroanilino)phenyl]acetic acid]
[3]
  Body weight changes (%): maximal decrease of body weight on day 5
[1]; 10 mg/kg i.p. one hour prior to carrageenan
  Anti-inflammatory activity: suppression of carrageenan-induced increase of paw volume: statistically significant and consistent anti-inflammatory activity
[4]
  Gastro-toxicity score: 4
